Source: the NIST ThermoML archive (doi:10.1016/j.tca.2017.05.009)
± gives the expanded uncertainty stated by the source.

Settings: Crystal; DTA

SMILES: [Sn] [tin]
- Normal melting temperature: 231.90 ± 2 °C
